“Also recorded” adds a separate entry of the source.
Tests used:
Avidin [1] = target: T1, Avidin (Streptomyces avidinii, UniProt P22629); settings: SBS: Avidin; cited from earlier work
[2] = Chromatographic (reverse-phase HPLC) evidence for photoremoval of the NVOC group in solution; format: physicochemical; settings: 100 mM, two minutes, 1 watt/cm^2, 500 W Hg(Xe) arc lamp, 305 nm long pass filter; NVOC-biotin-ONP in acetonitrile, biotin in water
Excerpt: The cuvette was irradiated for two minutes at a power of 1 watt/cm^2 with a 500 W Hg(Xe) arc lamp (Oriel #66142) having a 305 nm long pass filter (Oriel #51450). Illuminated and non-illuminated samples were then subjected to reverse-phase HPLC.

streptavidin [3] = target: T2, streptavidin (Streptomyces avidinii, UniProt P22629); experiment: Scanning fluorescence imaging of Fluorescein-Biotin binding to streptavidin immobilized on a slide; settings: 1 μM Fluorescein-Biotin, 20 minutes
T2 construct: purchased Amersham
T2 sequence (P22629 25-183): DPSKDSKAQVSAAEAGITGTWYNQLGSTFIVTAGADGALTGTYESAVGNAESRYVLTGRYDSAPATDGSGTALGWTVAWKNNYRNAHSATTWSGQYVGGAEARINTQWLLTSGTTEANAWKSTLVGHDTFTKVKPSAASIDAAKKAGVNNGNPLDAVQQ
Experimental: The microscope slide of Example I having NVOC-biotin covalently attached via a caproic-propyl spacer was illuminated and processed as in Example J, except that after preincubation with the PBS/BSA/Tween 20 solution, the surface was treated with 10 μg/ml solution of Streptavidin (in PBS/BSA/Tween 20) for 40 minutes at room temperature, followed by incubation with a 1 μM solution of Fluorescein-Biotin (5-(N-((5-(N-(6-(biotinoyl)amino) hexanoyl)amino)pentyl)thioureidyl)fluorescein, in PBS, pH 7.4) for 20 minutes. The resulting slide was then washed, dried, and examined using a scanning fluorescence microscope as described above.

streptavidin [4] = target: T2, streptavidin; experiment: Scanning fluorescence imaging of Fluorescein-Streptavidin binding to caged-biotin glass slides after photodeprotection; settings: NPOC, caproic-propyl spacer
Experimental: Commercially available glass microscope slides were derivatized with N-BOC-aminopropyltriethoxy silane according to literature procedures (for example, see J. Chromatography, 1974, Vol. 97, p. 33). The slides were incubated in a solution of 20% trifluoroacetic acid in methylene chloride for 30 minutes to remove the BOC protecting group. After washing sequentially with methylene chloride, dimethylformamide, and ethanol, the slides were neutralized by immersing in a solution of 10% diisopropylethyl amine in methylene chloride for 30 minutes and further washed with methylene chloride.
N-BOC-6-aminocaproic acid was converted to the BOP-activated ester in preparation for reaction with the derivatized glass slide. […]
[…], as described in the Example I, was mounted on a custom flow cell and illuminated through a 500 μm×500 μm checkerboard-pattern mask (Photo Sciences Inc., Torrance, Calif.) using broad-band UV/blue light. The light source was a 500 W Mercury arc lamp (Oriel Model 87330) equipped with a 350 nm-450 nm dichroic reflector and produced actinic light having an intensity of 12 mW/cm^2 as measured through a 360 nm bandpass filter. […]

Avidin [5] = target: T1, Avidin; experiment: Blocking of subsequent 3H-biotin binding in streptavidin-treated microtiter wells
Experimental: All procedures using NVOC-biotin-OMe were conducted in dim red light. NVOC-biotin-OMe was dissolved in dimethylformamide (DMF) to a concentration 1 mM and diluted to 100 μM with phosphate-buffered saline pH 7.4. In order to remove any contaminants having high affinity for avidin, 2 ml of the NVOC-biotin-OMe solution was mixed with 1 ml of packed streptavidin-Sepharose-4B resin (SIGMA) which had been washed thoroughly to remove any non-covalently bound avidin. After stirring for three hours, the resin was removed by centrifugation followed by filtration (0.2 micron nylon filter).
Microtiter wells (Beckman EIA plates) were treated for 1 hr with 200 μl of 0.5 μg/ml of streptavidin in 10 mM sodium bicarbonate buffer (pH 9.6). […] The wells were then washed with PBS/Tween 20 and incubated for 1 hr at room temperature with 200 μl of PBS containing ^3 H-biotin (30 Ci/mmol, New England Nuclear). The wells were then washed with PBS/Tween and treated for 30 minutes at room temperature with 200 μl of 10% trichloroacetic acid in water. The radioactivity in 100 μl was then determined by liquid scintillation counting.

avidin or streptavidin = settings: cited from earlier work

T1 sequence (P22629 25-183): as above

## COC(=O)CCCCC1SCC2C1NC(=O)N2C(=O)OC (stereo not drawn) [1'-N-methoxy-carbonylbiotin methyl ester]
Avidin [1]
  Affinity (Ka): 10^7 M^-1

## COC(=O)CCCCC1SCC2NC(=O)N(C(=O)OC)C21 (stereo not drawn) [3'-N-methoxy-carbonylbiotin methyl ester]
Avidin [1]
  Affinity (Ka): 10^9 M^-1

## O=C(O)CCCC[C@@H]1SC[C@@H]2NC(=O)N[C@@H]21 [Biotin, reference compound]
[2]
  result of illumination (HPLC): unaffected by the illumination

## O=C(CCCCCNC(=O)CCCC[C@@H]1SC[C@@H]2NC(=O)N[C@@H]21)NCCCCCNC(=S)Nc1ccc2c(c1)C(=O)OC21c2ccc(O)cc2Oc2cc(O)ccc21 [Fluorescein-Biotin, 5-(N-((5-(N-(6-(biotinoyl)amino)hexanoyl)amino)pentyl)thioureidyl)fluorescein]
Streptavidin [3]
  binding of Fluorescein-Biotin to immobilized streptavidin (fluorescence image): high fluorescence intensity

## N=C1NC2CSC(CCCCC(=O)O)C2N1 (stereo not drawn) [Iminobiotin]
Avidin [1]
  Affinity (Ka): 10^11 M^-1

## O=C(CCCC[C@@H]1SC[C@H]2[C@@H]1NC(=O)N2C(=O)OCc1cc2c(cc1[N+](=O)[O-])OCO2)Oc1ccc([N+](=O)[O-])cc1 [NPOC-biotin-ONP, N-1'-(6-nitropiperonyloxycarbonyl)-biotin para-nitrophenyl ester]
Streptavidin [4]
  streptavidin binding upon photodeprotection (fluorescence image): spatially-localized streptavidin binding

## COC(=O)CCCC[C@@H]1SC[C@H]2[C@@H]1NC(=O)N2C(=O)OCc1cc(OC)c(OC)cc1[N+](=O)[O-] [NVOC-biotin-OMe, N-1'-(6-nitroveratryloxycarbonyl)-biotin methyl ester]
Avidin [5]; after illumination in solution
  affinity for avidin: high affinity
Avidin [5]; illuminated (IL caged biotin), compared with biotin
  effectiveness in blocking the subsequent binding of 3H-biotin: nearly as effective as biotin
Avidin [5]; non-illuminated, concentrations as high as 10^-5 M
  effect on the subsequent binding of 3H-biotin: no significant effect
Avidin [5]; prior to illumination
  affinity for avidin: low affinity; also recorded: very low affinity

## COc1cc(COC(=O)N2C(=O)N[C@@H]3[C@H](CCCCC(=O)Oc4ccc([N+](=O)[O-])cc4)SC[C@@H]32)c([N+](=O)[O-])cc1OC [NVOC-biotin-ONP, N-1'-(6-nitroveratryloxycarbonyl)-biotin para-nitrophenyl ester]
[2]
  result of illumination (HPLC): converted to biotin-ONP upon illumination; also recorded: converted to Biotin-ONP by the illumination

## CN(CCCNC(=O)CCCC[C@@H]1SC[C@@H]2NC(=O)N[C@@H]21)CCCNc1ccc(N=[N+]=[N-])cc1[N+](=O)[O-] [photobiotin]
Avidin or streptavidin
  effect of carboxylate-terminus derivatization on binding to avidin or streptavidin: does not significantly reduce binding to avidin or streptavidin

— patent US5482867A, “Spatially-addressable immobilization of anti-ligands on surfaces” (Affymax Technologies N.V., priority 1993, dated 1996)
